pIC50: −log10 of the molar value.
How the values were obtained:
[1] = system: thrombin-induced platelet aggregation; test: Thrombin-induced platelet aggregation (platelet aggregometer); format: cell-based, human
Method: Platelet-rich plasma (PRP) was purchased from the Memorial Blood Bank (Minneapolis, Minn.) and used according to the guidelines of the Parker Hughes Institute Human Subjects Committee. The PRP samples were treated with varying concentrations of WHI-P131 for 20 minutes at 37° C. Control PRP samples were treated with vehicle alone. The treated PRP samples were diluted 1:4 with sterile normal saline and platelets were stimulated with thrombin (0.1 U/mL, Chronolog Inc., Philadelphia, Pa.) under stirred conditions. Platelet aggregation was monitored in a platelet aggregometer (Model 560 Dual Chamber Instrument, Chronolog Inc., Philadelphia, Pa.) for 5 minutes. The IC50 values for WHI-P131-mediated inhibition of agonist-induced platelet aggregation were calculated by non-linear regression analysis using Graphpad Prism software version 2.0 (Graphpad Software, Inc., San Diego, Calif.).

[2] = system: thromboplastin-induced thromboembolism; test: Thromboplastin-induced thromboembolism model; format: in vivo
Method: Mice (4-6 week old males, International Cancer Research (IRC)) were treated […] with 200 μL of vehicle (PBS supplemented with 10% DMSO), varying doses of WH-P131 in 200 μL of vehicle (administered intraperitoneally (i.p.) 30 minutes prior to the thromboplastin challenge). The mice were challenged with 25 mg/kg thromboplastin (Sigma, St. Louis, Mo.) via a bolus intravenous injection into the tail vein as previously described (Sato, et.al., 1998 Jpn J. Pharmacol 78(2), 191-7).
At the time of thromboembolism-related death after the thromboplastin injection or elective sacrifice at 48 hours using ketamine/xylazine, all mice were perfused with PBS followed by 4% phosphate buffered formalin. PBS and formalin were pumped through the left ventricle of the heart and allowed to exit through a 3 mm incision through the anterior wall of the right ventricle. During necropsy, several selected tissues (brain, heart, liver, lungs) were harvested, fixed in 10% neutral buffered formalin, dehydrated, and embedded in paraffin by routine methods for histopathologic examination. Glass slides with affixed 6 micron tissue sections were prepared and stained with hemotoxylin and eosin (H&E) or Masson's trichrome.

[3] = system: monkeys; test: Systemic toxicity in monkeys; format: in vivo; conditions: dose levels 1 mg/kg to 100 mg/kg
[4] = system: mice; test: Tail bleeding time in mice; format: in vivo
Method: Mice (4-6 week old males, International Cancer Research (IRC)) were treated intravenously with 200 μL vehicle (PBS supplemented with 10% DMSO) or varying doses of WHI-P131 in […] vehicle. To evalulate bleeding and clotting times, treated mice were placed in a tube holder and tail bleeding was performed with a 2 mm cut from the protruding tail tip; the tail was placed vertically into 10 mL normal saline in a 37° C. water bath and bleeding times determined as previously described (Teng, et.al., 1997 Eur J Pharmacol 320(2-3), 161-6).

[5] = system: mice; test: Systemic toxicity in mice; format: in vivo
[6] = system: collagen-induced platelet aggregation; test: Collagen-induced platelet aggregation; format: cell-based, human; conditions: FIG. 7D
[7] = Plasma concentration in mice; format: in vivo
[8] = system: platelets; test: Serotonin release from thrombin-stimulated platelets; format: cell-based, human; conditions: treated, N=4
Method: Release of serotonin from thrombin (0.1 U/mL)-stimulated platelets was measured using a serotonin detection kit (Immunotech, Marseille, France) according to the manufacturer's specifications. Sonnicated platelets were used for measurement of the total serotonin content of platelets.

[9] = biological target: T1, JAK3 (Homo sapiens, UniProt P52333); test: JAK3 inhibition (statement, no method)
T1 sequence (P52333 1-1124): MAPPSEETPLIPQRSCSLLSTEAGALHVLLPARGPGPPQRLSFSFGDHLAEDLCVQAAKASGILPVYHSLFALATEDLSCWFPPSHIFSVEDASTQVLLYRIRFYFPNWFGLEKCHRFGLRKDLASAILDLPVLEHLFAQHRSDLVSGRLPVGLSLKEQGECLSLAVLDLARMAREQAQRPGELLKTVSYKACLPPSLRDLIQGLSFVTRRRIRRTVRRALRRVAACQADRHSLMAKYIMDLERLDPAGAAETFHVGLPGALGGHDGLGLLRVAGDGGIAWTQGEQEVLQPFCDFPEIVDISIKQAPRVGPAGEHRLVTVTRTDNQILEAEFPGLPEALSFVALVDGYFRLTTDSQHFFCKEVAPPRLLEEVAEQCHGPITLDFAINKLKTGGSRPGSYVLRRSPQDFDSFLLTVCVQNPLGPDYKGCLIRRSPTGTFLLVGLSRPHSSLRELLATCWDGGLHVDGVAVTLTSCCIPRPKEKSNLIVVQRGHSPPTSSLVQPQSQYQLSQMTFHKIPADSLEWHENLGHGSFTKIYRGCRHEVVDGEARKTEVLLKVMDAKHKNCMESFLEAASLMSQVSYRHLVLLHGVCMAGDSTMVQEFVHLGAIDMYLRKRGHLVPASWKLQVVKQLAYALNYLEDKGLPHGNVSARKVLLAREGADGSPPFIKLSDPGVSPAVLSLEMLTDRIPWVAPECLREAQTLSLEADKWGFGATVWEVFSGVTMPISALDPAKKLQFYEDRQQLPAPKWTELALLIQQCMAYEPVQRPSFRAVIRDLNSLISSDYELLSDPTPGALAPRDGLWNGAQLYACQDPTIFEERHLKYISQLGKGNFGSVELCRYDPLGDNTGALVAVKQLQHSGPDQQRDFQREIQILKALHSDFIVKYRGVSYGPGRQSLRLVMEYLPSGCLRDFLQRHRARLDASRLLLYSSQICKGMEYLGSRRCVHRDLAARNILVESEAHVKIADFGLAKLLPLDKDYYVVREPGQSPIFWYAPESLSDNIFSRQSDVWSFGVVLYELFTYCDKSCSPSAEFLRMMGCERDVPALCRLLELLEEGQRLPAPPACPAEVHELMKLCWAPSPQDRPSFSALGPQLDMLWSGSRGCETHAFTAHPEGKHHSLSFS

| SMILES | pIC50 ([1]; Platelet, human platelets, pretreatment 30 minutes, thrombin 0.1 U/mL, average, read-out: IC50, inhibition of thrombin-induced platelet aggregation) | event-free survival outcome ([2]; mice, 25 mg/kg thromboplastin challenge) [%] | drug-related toxic lesions in organs (histopathology) ([2]; pretreated, thromboplastin-challenged mice) | toxicity on systemic administration [3] | average tail bleeding time ([4]; 20 mg/kg, N=5) [min] | average tail bleeding time ([4]; 40 mg/kg, N=10) [min] | average tail bleeding time ([4]; 80 mg/kg, N=10) [min] | survival and health status without thromboplastin challenge ([5]; 20 control mice, 80 mg/kg, 48 hour observation) | toxicity on systemic administration ([5]; mice, dose levels 1 mg/kg to 100 mg/kg) | effect on collagen-induced platelet aggregation [6] | plasma concentrations achieved without toxicity [7] [µM] | serotonin in platelet supernatants [8] [nM] | effect on thrombin-induced aggregation of platelets ([1]; even at 100 μM) | effect on thrombin induced platelet aggregation (aggregation curves) ([1]; thrombin 0.1 U/mL, FIG. 7B/7C) | JAK3 inhibition [9] |
| --- | --- | --- | --- | --- | --- | --- | --- | --- | --- | --- | --- | --- | --- | --- | --- |
| COc1cc2ncnc(Nc3ccc(O)cc3)c2cc1OC [WHI-P131, 4-(4′-Hydroxyphenyl)-amino-6,7-dimethoxyquinazoline] | 5.82 | 30±15 | No drug-related toxic lesions were detected | not toxic | 9.4 ± 0.6 | > 10 | > 10 | survived beyond the 48 hour observation period without any evidence of impaired health status or bleeding | not toxic | does not inhibit | ≥ 10 | 313 ± 19 | – | – | – |
| COc1cc2ncnc(Nc3ccccc3)c2cc1OC [WHI-P258] | – | – | – | – | – | – | – | – | – | – | – | – | did not affect | had no effect | does not inhibit |
